Values of other authors, collected in patent publication US12582632B2, “Inhibition of neurological injuries due to infections via administration of Butanetap and analogs thereof” (priority 2021, dated 2026).

Details: 3 phase 3 clinical studies, failed; cited from earlier work

## CN1CC[C@@]2(C)c3cc(OC(=O)Nc4ccccc4)ccc3N(C)[C@@H]12 [Phenserine, (−)-N-phenylcarbamoyl eseroline]
  side effects in clinical studies: high cholinomimetic side effects
